Test results from patent US12077555B2, “STAT degraders and uses thereof” (Kymera Therapeutics, Inc., priority 2019, dated 2024).
Where two headings read alike, the source gives them in different places.

Biological target: STAT3 (Homo sapiens, UniProt P40763)
Assay: STAT3 HiBiT degradation assay in transfected A549 cells
Type: cell-based
Set-up: expressed in transfected cells; host or cells: A549
In short: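 Transfected A549 cells (~2000/well) plated 24 h, then treated 24 h at 37 °C, 5% CO2 with a 3-fold, 10-point compound dilution. HiBiT lytic luminescence read after 10 min at room temperature; remaining STAT3 normalized to negative and positive controls, four-parameter fit. DC50 binned A <0.01, B 0.01–0.1, C 0.1–1.0, D >1.0 µM.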

[1] = A549, 24 h; read-out: STAT3 HiBiT A549 degradation 24 h: Average external-Abs DC50

Chain of STAT3 (P40763 whole entry): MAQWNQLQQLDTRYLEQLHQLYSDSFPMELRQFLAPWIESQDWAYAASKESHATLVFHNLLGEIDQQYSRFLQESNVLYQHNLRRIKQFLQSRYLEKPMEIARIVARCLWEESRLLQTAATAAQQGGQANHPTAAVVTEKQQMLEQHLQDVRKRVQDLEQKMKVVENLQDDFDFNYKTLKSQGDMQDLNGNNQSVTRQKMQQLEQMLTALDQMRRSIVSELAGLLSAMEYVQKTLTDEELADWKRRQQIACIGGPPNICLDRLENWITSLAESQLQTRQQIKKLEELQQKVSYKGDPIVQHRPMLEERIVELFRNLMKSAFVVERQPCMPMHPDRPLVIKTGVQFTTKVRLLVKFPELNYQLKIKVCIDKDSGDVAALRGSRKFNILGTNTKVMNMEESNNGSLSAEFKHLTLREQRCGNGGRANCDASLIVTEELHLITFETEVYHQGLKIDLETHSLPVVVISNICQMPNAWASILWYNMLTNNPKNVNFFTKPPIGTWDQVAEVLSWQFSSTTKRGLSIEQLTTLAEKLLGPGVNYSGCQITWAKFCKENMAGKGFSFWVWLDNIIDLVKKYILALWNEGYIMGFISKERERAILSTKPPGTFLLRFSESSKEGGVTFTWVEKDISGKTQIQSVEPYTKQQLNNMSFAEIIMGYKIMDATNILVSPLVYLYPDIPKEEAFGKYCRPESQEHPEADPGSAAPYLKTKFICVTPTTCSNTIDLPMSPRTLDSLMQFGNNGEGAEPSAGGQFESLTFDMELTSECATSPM

**Q.** `C[C@@H](OCc1ccc(Br)cc1)[C@H](CCC(N)=O)NC(=O)[C@@H]1CC[C@@H]2CCN(C(=O)CCCCCCc3ccc4c(c3)n(C)c(=O)n4C3CCC(=O)NC3=O)C[C@H](NC(=O)c3cc4cc(C(=O)P(=O)(O)O)ccc4[nH]3)C(=O)N21` (stereo partly drawn) [Compound I-183, 2-[[(5S,8S,10aR)-8-[[(3S,4R)-4-[(4-bromophenyl)methoxy]-1-carbamoylpentan-3-yl]carbamoyl]-3-[7-[1-(2,6-dioxopiperidin-3-yl)-3-methyl-2-oxo-1,3-benzodiazol-5-yl]heptanoyl]-6-oxo-octahydropyrrolo[1,2-a][1,5]diazocin-5-yl]carbamoyl]-1H-indole-5-carbonylphosphonic acid] was tested. Which DC50 (read-out: STAT3 HiBiT A549 degradation 24 h: Average external-Abs DC50; A549, 24 h) did it give?
**A.** The DC50 was 100 to 1000 nM.

**Q.** How did the DC50 [1] turn out when `C[C@@H](OCc1ccccc1)[C@H](CCC(N)=O)NC(=O)[C@@H]1CC[C@@H]2CCN(C(=O)CCCCCCc3ccc4c(c3)n(C)c(=O)n4C3CCC(=O)NC3=O)C[C@H](NC(=O)c3cc4cc(C(=O)P(=O)(O)O)ccc4[nH]3)C(=O)N21` (stereo partly drawn) [Compound I-184, 2-[[(5S8S,10aR)-8-[[(3S,4R)-4-(benzyloxy)-1-carbamoylpentan-3-yl]carbamoyl]-3-[7-[1-(2,6-dioxopiperidin-3-yl)-3-methyl-2-oxo-1,3-benzodiazol-5-yl]heptanoyl]-6-oxo-octahydropyrrolo[1,2-a][1,5]diazocin-5-yl]carbamoyl]-1H-indole-5-carbonylphosphonic acid] was run?
**A.** The DC50 was 100 to 1000 nM.

**Q.** Which DC50 [1] does the source give for `Cc1ncsc1-c1ccc([C@H](C)NC(=O)[C@@H]2C[C@@H](O)CN2C(=O)[C@@H](NC(=O)CCCc2cccc(OC[C@@H](NC(=O)[C@@H]3Cc4cccc5c4N3C(=O)[C@@H](NC(=O)c3cc4cc(C(=O)P(=O)(O)O)ccc4[nH]3)CC5)C(N)=O)c2)C(C)(C)C)cc1` [Compound I-194, diammonium 2-[[(2S,11S)-2-[[(2S)-4-carbamoyl-1-[3-(3-[[(2S)-1-[(2S,4R)-4-hydroxy-2-[[(1S)-1-[4-(4-methyl-1,3-thiazol-5-yl)phenyl]ethyl]carbamoyl]pyrrolidin-1-yl]-3,3-dimethyl-1-oxobutan-2-yl]carbamoyl]propyl)phenoxy]butan-2-yl]carbamoyl]-12-oxo-1-azatricyclo[6.4.1.0^[4,13]]trideca-4(13),5,7-trien-11-yl]carbamoyl]-1H-indole-5-carbonylphosphonate] here?
**A.** Its DC50 is 10 to 100 nM.

**Q.** Which DC50 [1] does the source give for `Cn1c(=O)n(C2CCC(=O)NC2=O)c2ccc(C[C@H]3CC[C@@H](CC(=O)N4CC[C@H]5CC[C@@H](C(=O)N[C@@H](CCC(N)=O)C(=O)NCc6cccc7ccccc67)N5C(=O)[C@@H](NC(=O)c5cc6cc(C(=O)P(=O)(O)O)ccc6[nH]5)C4)CC3)cc21` (stereo partly drawn) [Compound I-197, 2-[[(5S,8S,10aR)-8-[[(1S)-3-carbamoyl-1-[(naphthalen-1-ylmethyl)carbamoyl]propyl]carbamoyl]-6-oxo-3-[2-[(1S,4S)-4-[[1-(2,6-dioxopiperidin-3-yl)-3-methyl-2-oxo-1,3-benzodiazol-5-yl]methyl]cyclohexyl]acetyl]-octahydropyrrolo[1,2-a][1,5]diazocin-5-yl]carbamoyl]-1H-indole-5-carbonylphosphonic acid] here?
**A.** The DC50 was 100 to 1000 nM.

**Q.** Which DC50 [1] does the source give for `Cn1c(=O)n(C2CCC(=O)NC2=O)c2ccc(CCCCCc3cc4c5c(c3)C[C@@H](C(=O)N[C@@H](CCC(N)=O)C(=O)NC(c3ccccc3)c3ccccc3)N5C(=O)[C@@H](NC(=O)c3cc5cc(C(=O)P(=O)(O)O)ccc5[nH]3)CC4)cc21` (stereo partly drawn) [Compound I-198, 2-[[(2S,11S)-2-[[(1S)-3-carbamoyl-1-(diphenylmethylcarbamoyl)propyl]carbamoyl]-6-[5-[1-(2,6-dioxopiperidin-3-yl)-3-methyl-2-oxo-1,3-benzodiazol-5-yl]pentyl]-12-oxo-1-azatricyclo[6.4.1.0^[4,13]]trideca-4(13),5,7-trien-11-yl]carbamoyl]-1H-indole-5-carbonylphosphonic acid] here?
**A.** The DC50 was 100 to 1000 nM.

**Q.** Which DC50 [1] does the source give for `Cc1ncsc1-c1ccc([C@H](C)NC(=O)[C@@H]2C[C@@H](O)CN2C(=O)[C@@H](NC(=O)CCCCCc2cc(OC[C@@H](NC(=O)[C@@H]3Cc4cccc5c4N3C(=O)[C@@H](NC(=O)c3cc4cc(C(=O)P(=O)(O)O)ccc4[nH]3)CC5)C(N)=O)ccc2Cl)C(C)(C)C)cc1` [Compound I-199, diammonium 2-[[(2S,11S)-2-[[(2S)-4-carbamoyl-1-[4-chloro-3-(5-[[(2S)-1-[(2S,4R)-4-hydroxy-2-[[(1S)-1-[4-(4-methyl-1,3-thiazol-5-yl)phenyl]ethyl]carbamoyl]pyrrolidin-1-yl]-3,3-dimethyl-1-oxobutan-2-yl]carbamoyl]pentyl)phenoxy]butan-2-yl]carbamoyl]-12-oxo-1-azatricyclo[6.4.1.0^[4,13]]trideca-4(13),5,7-trien-11-yl]carbamoyl]-1H-indole-5-carbonylphosphonate] here?
**A.** The DC50 was 10 to 100 nM.

**Q.** `Cc1ncsc1-c1ccc([C@H](C)NC(=O)[C@@H]2C[C@@H](O)CN2C(=O)[C@@H](NC(=O)CCCCCc2ccc(Cl)c(OC[C@H](CCC(N)=O)NC(=O)[C@@H]3Cc4cccc5c4N3C(=O)[C@@H](NC(=O)c3cc4cc(C(=O)P(=O)(O)O)ccc4[nH]3)CC5)c2)C(C)(C)C)cc1` [Compound I-200] was tested. Which DC50 [1] did it give?
**A.** Its DC50 is > 1000 nM.

**Q.** How did the DC50 [1] turn out when `Cn1c(=O)n(C2CCC(=O)NC2=O)c2ccc(CC[C@H]3CC[C@@H](C(=O)N4CC[C@H]5CC[C@@H](C(=O)N[C@@H](CCC(N)=O)C(=O)NC(c6ccccc6)c6ccccc6)N5C(=O)[C@@H](NC(=O)c5cc6cc(C(=O)P(=O)(O)O)ccc6[nH]5)C4)CC3)cc21` (some centres unmarked) [Compound I-202] was run?
**A.** The DC50 was 10 to 100 nM.

**Q.** `Cn1c(=O)n(C2CCC(=O)NC2=O)c2ccc(CC[C@H]3CC[C@H](C(=O)N4CC[C@H]5CC[C@@H](C(=O)N[C@@H](CCC(N)=O)C(=O)NC(c6ccccc6)c6ccccc6)N5C(=O)[C@@H](NC(=O)c5cc6cc(C(=O)P(=O)(O)O)ccc6[nH]5)C4)CC3)cc21` (stereo partly drawn) [Compound I-203, 2-[[(5S,8S,10aR)-8-[[(1S)-3-carbamoyl-1-(diphenylmethylcarbamoyl)propyl]carbamoyl]-6-oxo-3-[(1r,4r)-4-[2-[1-(2,6-dioxopiperidin-3-yl)-3-methyl-2-oxo-1,3-benzodiazol-5-yl]ethyl]cyclohexanecarbonyl]-octahydropyrrolo[1,2-a][1,5]diazocin-5-yl]carbamoyl]-1H-indole-5-carbonylphosphonic acid] was tested. Which DC50 [1] did it give?
**A.** The DC50 was 10 to 100 nM.

**Q.** For `Cc1ncsc1-c1ccc([C@H](C)NC(=O)[C@@H]2C[C@@H](O)CN2C(=O)[C@@H](NC(=O)CCCCCc2cc(Cl)cc(OC[C@@H](NC(=O)[C@@H]3Cc4cccc5c4N3C(=O)[C@@H](NC(=O)c3cc4cc(C(=O)P(=O)(O)O)ccc4[nH]3)CC5)C(N)=O)c2)C(C)(C)C)cc1` [Compound I-204, 2-[[(2S,11S)-2-[[(2S)-4-carbamoyl-1-[3-chloro-5-(5-[[(2S)-1-[(2S,4R)-4-hydroxy-2-[[(1S)-1-[4-(4-methyl-1,3-thiazol-5-yl)phenyl]ethyl]carbamoyl]prrolidin-1-yl]-3,3-dimethyl-1-oxobutan-2-yl]carbamoyl]pentyl)phenoxy]butan-2-yl]carbamoyl]-12-oxo-1-azatricyclo[6.4.1.0^[4,13]]trideca-4(13),5,7-trien-11-yl]carbamoyl]-1H-indole-5-carbonylphosphonic acid], which DC50 [1] is on record?
**A.** The DC50 was 10 to 100 nM.

**Q.** How did the DC50 [1] turn out when `Cc1ncsc1-c1ccc([C@H](C)NC(=O)[C@@H]2C[C@@H](O)CN2C(=O)[C@@H](NC(=O)CCCCCc2cccc(OC[C@@H](NC(=O)[C@@H]3Cc4cccc5c4N3C(=O)[C@@H](NC(=O)c3cc4cc(C(=O)P(=O)(O)O)ccc4[nH]3)CC5)C(N)=O)c2C)C(C)(C)C)cc1` [Compound I-205, diammonium 2-[[(2S,11S)-2-[[(2S)-4-carbamoyl-1-[3-[5-[[(2S)-1-[(2S,4R)-4-hydroxy-2-[[(1S)-1-[4-[4-methyl-1,3-thiazol-5-yl)phenyl]ethyl]carbamoyl]pyrrolidin-1-yl]-3,3-dimethyl-1-oxobutan-2-yl]carbamoyl]pentyl)-2-methylphenoxy]butan-2-yl]carbamoyl]-12-oxo-1-azatricyclo[6.4.1.0^[4,13]]trideca-4(13),5,7-trien-11-yl]carbamoyl]-1H-indole-5-carbonylphosphonate] was run?
**A.** Its DC50 is 10 to 100 nM.

**Q.** For `Cc1ncsc1-c1ccc(C2(NC(=O)[C@@H]3C[C@@H](O)CN3C(=O)[C@@H](NC(=O)CCCCCc3cccc(OC[C@H](CCC(N)=O)NC(=O)[C@@H]4Cc5cccc6c5N4C(=O)[C@@H](NC(=O)c4cc5cc(C(=O)P(=O)(O)O)ccc5[nH]4)CC6)c3)C(C)(C)C)CC2)cc1` [Compound I-206, diammonium 2-[[(2S,11S)-2-[[(2S)-4-carbamoyl-1-[3-(5-[[(2S)-1-[(2S,4R)-4-hydroxy-2-([1-[4-[4-methyl-1,3-thiazo1-5-yl)phenyl]cyclopropyl]carbamoyl)pyrrolidin-1-yl]-3,3-dimethyl-1-oxobutan-2-yl]carbamoyl]pentyl)phenoxy]butan-2-yl]carbamoyl]-12-oxo-1-azatricyclo[6.4.1.0^[4,13]]trideca-4(13),5,7-trien-11-yl]carbamoyl]-1H-indole-5-carbonylphosphonate], which DC50 [1] is on record?
**A.** Its DC50 is 10 to 100 nM.

**Q.** How did the DC50 [1] turn out when `Cc1ncsc1-c1ccc([C@H](C)NC(=O)[C@@H]2C[C@@H](O)CN2C(=O)[C@@H](NC(=O)CCCCCc2ccc(F)c(OC[C@H](CCC(N)=O)NC(=O)[C@@H]3Cc4cccc5c4N3C(=O)[C@@H](NC(=O)c3cc4cc(C(=O)P(=O)(O)O)ccc4[nH]3)CC5)c2)C(C)(C)C)cc1` [Compound I-207] was run?
**A.** The DC50 was 100 to 1000 nM.

**Q.** With `Cn1c(=O)n(C2CCC(=O)NC2=O)c2ccc(C3CC(CCCCC(=O)N4CC[C@H]5CC[C@@H](C(=O)N[C@@H](CCC(N)=O)C(=O)NC(c6ccccc6)c6ccccc6)N5C(=O)[C@@H](NC(=O)c5cc6cc(C(=O)P(=O)(O)O)ccc6[nH]5)C4)C3)cc21` (stereo partly drawn) [Compound I-208, 2-[[(5S,8S,10aR)-8-[[(1S)-3-carbamoyl-1-(diphenylmethylcarbamoyl)propyl]carbamoyl]-3-(5-[3-[1-(2,6-dioxopiperidin-3-yl)-3-methyl-2-oxo-1,3-benzodiazol-5-yl]cyclobutyl]pentanoyl)-6-oxo-octahydropyrrolo[1,2-a][1,5]diazocin-5-yl]carbamoyl]-1H-indole-5-carbonylphosphonic acid] as the compound, how does the DC50 [1] read?
**A.** The DC50 was 100 to 1000 nM.
